“Also recorded” adds a separate entry of the source.
Tested on: b-catenin/Tcf4-dependent transcription
Test: Top/Fop-Flash assay in CCM3-knockout endothelial line
Type: cell-based, mouse
Conditions: 48 h
Description: Drugs were added to confluent cells for 48 h before the indicated assays. The final concentrations used were: […] (all from Sigma-Aldrich). As all of these were dissolved in DMSO, control treatment (vehicle) was 0.1% DMSO final concentration, as for drug treatment. […] This was transfected into the endothelial cells […] using Lipofectamine 2000, according to the manufacturer instructions (Invitrogen). The pCMV plasmid for constitutive expression of b-gal was co-transfected ([…]), for normalization of luciferase expression over transfection efficiency. […] This was co-transfected with the b-gal plasmid, for normalization, as above. The Dual-Light Reporter Gene assay system (Applied Biosystems) for the combined detection of firefly luciferase and b-gal was used. The cell extraction and detection of chemiluminescence (Glomax 96 microplate luminometer; Promega) was carried out according to the manufacture instructions.

CSc1ccc(/C=C2/C(C)=C(CC(=O)O)c3cc(F)ccc32)cc1 [sulindac sulfide, (Z)-5-Fluoro-2-methyl-1-[4-(methylthio)benzylidene]indene-3-acetic acid]
b-catenin transcriptional activity in Top/Fop Flash reporter assay: inhibited; also recorded: reduced
